Results reported in patent publication US20100285141A1, “COMPOSITIONS AND METHODS FOR ENHANCING THE ACTIVITY OF PODOPHYLLOTOXIN” (DO-COOP TECHNOLOGIES LTD., priority 2008, published 2010).

Tests used:
[1] = test system: PC3 prostate cancer cells; assay: Etoposide in Neowater or deionized water, surviving cells by XTT dye uptake, PC3; assay type: cell-based, human; conditions: PC3, 24 hours incubation, FIG. 1B
Description: (§1) Two human prostate cancer cell lines were examined—LnCap and PC3.

[2] = test system: LnCap prostate cancer cells; assay: Etoposide in Neowater or deionized water, surviving cells by XTT dye uptake, LnCap; assay type: cell-based, human; conditions: 24 hours incubation, FIG. 1A
Description: as §1

COc1cc([C@@H]2c3cc4c(cc3[C@@H](O[C@@H]3O[C@@H]5CO[C@@H](C)O[C@H]5[C@H](O)[C@H]3O)[C@H]3COC(=O)[C@H]23)OCO4)cc(OC)c1O [etoposide, Etoposide]
proliferation of cancer cells (cell growth) [1]: dose-dependent decrease
proliferation of cancer cells (cell growth) [2]: dose-dependent decrease
